{"source": "patent US20010007862A1", "about": "“METHOD OF SELECTING A SALT FOR MAKING AN INCLUSION COMPLEX” (priority 1996, published 2001)", "test": "Equilibrium solubility of ziprasidone salts in 40% (w/v) aqueous SBECD", "settings": "40% SBECD", "from_the_text": "Many different experimental protocols can be envisioned and implemented.", "note": "Where a name gives a salt, the structure may show the parent alone.", "data": [{"compound": "O=C1Cc2cc(CCN3CCN(c4nsc5ccccc45)CC3)c(Cl)cc2N1", "note": "[mesylate, Ziprasidone Mesylate]", "values": [{"measurement": "Rank of solubility among salt candidates and cyclodextrin solutions tested", "result": "highest solubility"}]}]}
